In test [1] the test system is KOS strain of HSV-1 virus. The test can be described thus: HSV-1 qPCR assay (cellular herpesvirus replication). Type of test: cell-based. As to conditions: Human alphaherpesvirus 1; NN-NHDF cells, qPCR after 24 hrs; n>3, value (+/- spread). How it is done:
(§1) For all viral assays, 10 mM DMSO stock compound solutions were serially diluted in DMSO at 3.16 fold dilutions in 96-well clear round bottom plates. Compounds were then diluted in assay media at 1:20 and subsequently 10 μL of these dilutions were added to cells for final compound concentrations ranging either from 0.0159 μM to 50 μM in 0.5% DMSO/assay media, or from 0.00318 to 10 μM in 0.5% DMSO/assay media.
HSV-1 qPCR assay: The assay uses KOS strain of HSV-1 virus (ATCC cat #VR-1493). Viral replication in the presence or absence of compounds was measured by qPCR according to the following procedure: NN-NHDF cells were plated at 9,000 cells/well in 96-well white-wall clear bottom plates in 80 μL/well of assay media (same as CMV) and left at room temperature in laminar flow hood for 20 mins followed by incubation at 37° C. […]
qPCR reactions were carried out in a total reaction volume of 20 μL, using the QuantiFast® Multiplex PCR kit (Qiagen cat #204656). Eighteen μL of qPCR master mix (10 μL of 2× QuantiFast® Multiplex PCR Master Mix, 1 μL of 20× Primer/Probe Mix specific to housekeeping gene, 1 μL of 20× Primer/Probe Mix specific to viral gene, 6 μL of H2O) was distributed into each well of a 384 well plate. […]
(§2) Relative quantification was calculated with the ΔΔCT Method, and then converted into percent inhibitions. […] EC50 values were calculated using XLFit Dose Response One Site Model 205.

The subject of another test is VZV Ellen strain. Description: VZV qPCR assay (cellular herpesvirus replication). Type of test: cell-based. Particulars: Human alphaherpesvirus 3, MRC5, 48 h; MRC-5 cells, qPCR after two days; n>3, value (+/- spread). How it is done: as §1
VZV qPCR assay: The assay uses co-infection with VZV Ellen strain-infected MRC-5 cells (ATCC cat #VR-1367). Viral replication in the presence or absence of compounds was measured by qPCR according to the following procedure: 12,000 uninfected MRC-5 cells were mixed with VZV-infected MRC-5 cells at a ratio of 1 to 10 infected to uninfected cells, in 96-well white-wall clear bottom plates in 90 μL/well of assay media: 4% FBS in EMEM (ATCC cat #30-2003). […] The chosen ratio of infected to uninfected cells gave approximately 3% VZV-positive cells at 6 hours post co-culturing, as detected by immunofluorescent staining of VZV Immediate Early 62 gene. […]
qPCR reactions were carried out in a total reaction volume of 20 μL, using the QuantiFast® Multiplex PCR kit (Qiagen cat #204656). […]
as §2
For orientation: In qPCR the cycle at which signal appears reflects the starting amount.

For the compound `N#Cc1ccc(CNC(=O)c2ccc3n(c2=O)CCN(CC2(S(=O)(=O)C4CC4)CC2)C3=O)cc1` [Example 1, N-(4-cyanobenzyl)-2-((1-(cyclopropylsulfonyl)cyclopropyl)methyl)-1,6-dioxo-2,3,4,6-tetrahydro-1H-pyrido[1,2-a]pyrazine-7-carboxamide], the EC50 in test [1] was determined as 0.032 µM; in the test with VZV Ellen strain, 0.02 µM.

As a reminder, the EC50 is the concentration giving half of the maximal effect. Read a high EC50 as a need for much substance.
